We go through 28 compounds from ChEMBL document CHEMBL4483862, “Open-source discovery of chemical leads for next-generation chemoprotective antimalarials” (2018).

The assay relates to Plasmodium berghei. The experiment in a line: Luciferase/luciferin-expressing antifolate-resistant parasites were used to infect a culture of HepG2 cells that were pre-incubated with compounds. Infected hepatocytes emit light due to the luciferase reaction. Assay results are presented as the percent inhibition of light emission compared to control. […]. The assay is classed as functional. The conditions noted are these: sporozoite; for IC90: read-out: LUCIFERASE INFECTION ASSAY - IC90.

One may read the IC50 as the concentration that inhibits the measured activity by half. What is called IC90 is the concentration at which the effect reaches the 90% level. Regarding `COc1ccc(O)c(/C=N/NC(=O)c2ccc(CSc3nc(C)cc(C)n3)cc2)c1`, the IC90 came out at 4.88 µM. Further, the IC50 (FFLUC_HILL_SLOPE 9.54, FFLUC_R_SQUARED 0.0205, HEPG2TOX_HILL_SLOPE 2.18, HEPG2TOX_R_SQUARED 0.934, PBLUC_HILL_SLOPE 9.18, PBLUC_R_SQUARED 0.547, read-out: LUCIFERASE INFECTION ASSAY - IC50) is 3.84 µM.

`COc1cc(/C=C2\C(=O)c3ccccc3S(=O)(=O)N2C(C)C)ccc1O`: the IC90 was determined as 2.85 µM. The IC50 (FFLUC_HILL_SLOPE 10, FFLUC_R_SQUARED 0.0898, HEPG2TOX_HILL_SLOPE 4.33, HEPG2TOX_R_SQUARED 0.977, PBLUC_HILL_SLOPE 2.02, PBLUC_R_SQUARED 0.77, read-out: LUCIFERASE INFECTION ASSAY - IC50) was found to be 0.957 µM.

For `Cc1cc(C(=O)COC(=O)c2ccc[nH]c2=O)c(C)n1CC1CCCO1` (stereo unspecified), the concentration for an effect of 90% (IC90) is over 10 µM. The IC50 (FFLUC_HILL_SLOPE 9.51, FFLUC_R_SQUARED 0.378, PBLUC_HILL_SLOPE 2.55, PBLUC_R_SQUARED 0.111, read-out: LUCIFERASE INFECTION ASSAY - IC50) came out at 6.62 µM.

Take `Cc1ccc(-n2c(C)cc(C(=O)CN(c3ccccc3)S(=O)(=O)c3ccc(F)cc3)c2C)cc1C`: the IC90 was over 10 µM. Moreover, the IC50 (FFLUC_HILL_SLOPE 9.87, FFLUC_R_SQUARED 0.464, read-out: LUCIFERASE INFECTION ASSAY - IC50) is over 10 µM.

`CCCCCCCCCCCc1nnc(SCc2ccc(Cl)cc2)n1-c1ccccc1C(F)(F)F`: the IC90 was over 6.3 µM. Moreover, the IC50 (FFLUC_HILL_SLOPE 9.94, FFLUC_R_SQUARED 0.653, read-out: LUCIFERASE INFECTION ASSAY - IC50) was over 6.3 µM.

For `CCCCNC(=O)c1c(NC(=O)c2cc(OC)cc(OC)c2)nc2ccccn12`, the IC90 came out at 5.61 µM. In addition, the 50% inhibitory concentration (IC50) (FFLUC_HILL_SLOPE 9.35, FFLUC_R_SQUARED 0.0665, PBLUC_HILL_SLOPE 7.48, PBLUC_R_SQUARED 0.629, read-out: LUCIFERASE INFECTION ASSAY - IC50) came out at 4.18 µM.

With `C=CCn1c(SCC(=O)Nc2sc(C)c(C)c2C(=O)OCC)nc2scc(-c3ccc(OC)cc3)c2c1=O`, the IC90 is over 10 µM. Also, the IC50 (FFLUC_HILL_SLOPE 9.8, FFLUC_R_SQUARED 0.347, HEPG2TOX_HILL_SLOPE 0.0825, HEPG2TOX_R_SQUARED 0.0539, PBLUC_HILL_SLOPE 3.18, PBLUC_R_SQUARED 0.293, read-out: LUCIFERASE INFECTION ASSAY - IC50) was 5.66 µM.

On to `O=C(c1cccs1)N1[C@@H]2CC[C@@H](C2)[C@H]1c1nc2cccc(OCc3ccc(F)cc3)c2[nH]1`, for which the IC90 was over 10 µM. Moreover, the IC50 (FFLUC_HILL_SLOPE 9.4, FFLUC_R_SQUARED 0.0879, PBLUC_HILL_SLOPE 2.58, PBLUC_R_SQUARED 0.515, read-out: LUCIFERASE INFECTION ASSAY - IC50) came out at 7.57 µM.

For the compound `CN(C)CCNc1ccnc2c(-c3ccccc3F)cnn12`, the IC90 was found to be 1.46 µM. Moreover, for the setting “FFLUC_HILL_SLOPE 9.41, FFLUC_R_SQUARED 0.56, PBLUC_HILL_SLOPE 1.12, PBLUC_R_SQUARED 0.894, read-out: LUCIFERASE INFECTION ASSAY - IC50”, the IC50 is 0.204 µM.

Consider `Brc1cnc(N2CCN(C(c3ccccc3)(c3ccccc3)c3ccccc3)CC2)nc1`, for which the IC90 is over 6.8 µM. Also, the IC50 (FFLUC_HILL_SLOPE 9.83, FFLUC_R_SQUARED 0.0243, read-out: LUCIFERASE INFECTION ASSAY - IC50) was over 6.8 µM.

On to `COc1cc(Cl)c(C)cc1-n1c(SCc2nnc(-c3cccs3)o2)nc2ccccc2c1=O`, for which the IC90 was over 10 µM. Further, where the note is “FFLUC_HILL_SLOPE 9.81, FFLUC_R_SQUARED 0.743, PBLUC_HILL_SLOPE 8.4, PBLUC_R_SQUARED 0.579, read-out: LUCIFERASE INFECTION ASSAY - IC50”, the concentration for half-maximal inhibition (IC50) is 8.6 µM.

On to `Cc1cc(C)c2nc(N(Cc3ccccc3)C(=O)c3nc(S(C)(=O)=O)ncc3Cl)sc2c1`, for which the IC90 is over 10 µM. Further, under “FFLUC_HILL_SLOPE 9.88, FFLUC_R_SQUARED 0.449, HEPG2TOX_HILL_SLOPE 6.61, HEPG2TOX_R_SQUARED 0.275, PBLUC_HILL_SLOPE 4.15, PBLUC_R_SQUARED 0.619, read-out: LUCIFERASE INFECTION ASSAY - IC50”, the IC50 was determined as 6.34 µM.

Regarding `CC(NC(=O)c1ccccc1NC(=O)CSc1ccc2c3c(cccc13)CC2)c1ccccc1` (stereo unspecified), the IC90 is over 10 µM. In addition, the IC50 (FFLUC_HILL_SLOPE 9.73, FFLUC_R_SQUARED 0.624, HEPG2TOX_HILL_SLOPE 6.39, HEPG2TOX_R_SQUARED 0.223, read-out: LUCIFERASE INFECTION ASSAY - IC50) was over 10 µM.

On to `O=C1Nc2ccc([N+](=O)[O-])cc2C1=C(c1nc2ccccc2s1)c1nc2ccccc2s1`, for which the IC90 was over 10 µM. Also, the IC50 (FFLUC_HILL_SLOPE 9.66, FFLUC_R_SQUARED 0.665, read-out: LUCIFERASE INFECTION ASSAY - IC50) is over 10 µM.

In the case of `CCn1c2ccccc2c2cc(NC(=O)C(C)OC(=O)C3C(C(=O)OC)=C(C)NC(C)=C3C(=O)OC)ccc21` (stereo unspecified), the 90% effect concentration (IC90) is over 10 µM. In addition, the IC50 (FFLUC_HILL_SLOPE 9.58, FFLUC_R_SQUARED 0.157, read-out: LUCIFERASE INFECTION ASSAY - IC50) was over 10 µM.

For the compound `O=C(COc1ccc([N+](=O)[O-])c2cccnc12)Nc1ccc(C(F)(F)F)cc1`, the IC90 was over 10 µM. The IC50 (FFLUC_HILL_SLOPE 10, FFLUC_R_SQUARED 0.0627, PBLUC_HILL_SLOPE 68.1, PBLUC_R_SQUARED 0.146, read-out: LUCIFERASE INFECTION ASSAY - IC50) came to 9.89 µM.

On to `Cc1cc(C(=O)CN2CCC(C(=O)Nc3ccc4c(c3)OCO4)CC2)c(C)n1Cc1cccs1`, for which the IC90 was over 10 µM. Further, where the note is “FFLUC_HILL_SLOPE 9.45, FFLUC_R_SQUARED 0.378, read-out: LUCIFERASE INFECTION ASSAY - IC50”, the IC50 is over 10 µM.

Turning to `O=C1Nc2ccc(Cl)cc2/C1=C/c1nn(Cc2ccccc2)cc1-c1cccnc1`, the IC90 was over 10 µM. In addition, the IC50 (FFLUC_HILL_SLOPE 9.69, FFLUC_R_SQUARED 0.424, PBLUC_HILL_SLOPE 9.27, PBLUC_R_SQUARED 0.306, read-out: LUCIFERASE INFECTION ASSAY - IC50) was 8.59 µM.

As to `CC(C)N(C(=O)CSC1=NC(c2ccccc2)C2=C(N1)/C(=C/c1ccccc1)CCC2)c1ccccc1` (stereo unspecified), the IC90 was found to be 9.39 µM. Moreover, where the note is “FFLUC_HILL_SLOPE 9.66, FFLUC_R_SQUARED 0.711, HEPG2TOX_HILL_SLOPE 8.12, HEPG2TOX_R_SQUARED 0.779, PBLUC_HILL_SLOPE 2.67, PBLUC_R_SQUARED 0.724, read-out: LUCIFERASE INFECTION ASSAY - IC50”, the IC50 is 4.12 µM.

Turning to `CS(=O)(=O)C(C#N)=Cc1ccccc1OCc1c(Cl)cccc1Cl`, the IC90 was over 8.63 µM. Also, the IC50 (FFLUC_HILL_SLOPE 9.87, FFLUC_R_SQUARED 0.717, read-out: LUCIFERASE INFECTION ASSAY - IC50) was over 8.63 µM.

On to `FC(F)(F)c1cc(Nc2ncnc3sc(-c4ccccc4)cc23)ccc1Cl`, for which the IC90 is over 10 µM. In addition, the IC50 (FFLUC_HILL_SLOPE 9.86, FFLUC_R_SQUARED 0.42, HEPG2TOX_HILL_SLOPE 7.8, HEPG2TOX_R_SQUARED 0.241, read-out: LUCIFERASE INFECTION ASSAY - IC50) was over 10 µM.

On to `CCc1sc2nc(SCC(=O)NC(C)(C#N)C(C)C)n(Cc3ccc(C)cc3)c(=O)c2c1C` (stereo unspecified), for which the IC90 was over 10 µM. The IC50 (FFLUC_HILL_SLOPE 10, FFLUC_R_SQUARED 0.698, read-out: LUCIFERASE INFECTION ASSAY - IC50) was over 10 µM.

Take `O=C(NCc1ccccc1)C1=CN2CCN(Cc3cccc(Cl)c3)C(=O)N=C2O1`: the IC90 was over 10 µM. The IC50 (FFLUC_HILL_SLOPE 9.9, FFLUC_R_SQUARED 0.0641, read-out: LUCIFERASE INFECTION ASSAY - IC50) is over 10 µM.

With `COc1ccc(-c2cnc3cnc(-c4ccc(CNc5ccccc5)cc4)cn23)cc1`, the IC90 was over 8.12 µM. Further, the IC50 (FFLUC_HILL_SLOPE 9.54, FFLUC_R_SQUARED 0.167, PBLUC_HILL_SLOPE 2.96, PBLUC_R_SQUARED 0.482, read-out: LUCIFERASE INFECTION ASSAY - IC50) came out at 4.66 µM.

With `Cc1cc2nnc(-c3ccc(C(F)(F)F)cc3)n2[nH]1`, the IC90 was over 12.4 µM. The IC50 (FFLUC_HILL_SLOPE 9.36, FFLUC_R_SQUARED 0.07, PBLUC_HILL_SLOPE 1.33, PBLUC_R_SQUARED 0.805, read-out: LUCIFERASE INFECTION ASSAY - IC50) is 3.1 µM.

As for `COc1cc(-c2cnc3cnc(-c4ccccc4C)cn23)ccc1O`, the IC90 is 5.32 µM. For the setting “FFLUC_HILL_SLOPE 9.6, FFLUC_R_SQUARED 0.0922, HEPG2TOX_HILL_SLOPE 3.65, HEPG2TOX_R_SQUARED 0.847, PBLUC_HILL_SLOPE 7.45, PBLUC_R_SQUARED 0.397, read-out: LUCIFERASE INFECTION ASSAY - IC50”, the IC50 turned out to be 3.96 µM.

Take `Cc1ccccc1-c1cn2c(-c3ccc(O)cc3)cnc2cn1`: the IC90 was found to be 3.92 µM. In addition, under “FFLUC_HILL_SLOPE 9.55, FFLUC_R_SQUARED 0.182, HEPG2TOX_HILL_SLOPE 2.1, HEPG2TOX_R_SQUARED 0.88, PBLUC_HILL_SLOPE 16, PBLUC_R_SQUARED 0.259, read-out: LUCIFERASE INFECTION ASSAY - IC50”, the IC50 turned out to be 3.41 µM.

For `CCCCNC(=O)c1c(NC(=O)c2cc(F)cc(F)c2)nc2ccccn12`, the IC90 amounted to 1.17 µM. Further, the 50% inhibitory concentration (IC50) (FFLUC_HILL_SLOPE 9.87, FFLUC_R_SQUARED 0.392, HEPG2TOX_HILL_SLOPE 0.611, HEPG2TOX_R_SQUARED 0.894, PBLUC_HILL_SLOPE 4.02, PBLUC_R_SQUARED 0.616, read-out: LUCIFERASE INFECTION ASSAY - IC50) is 0.679 µM.
